Assays:
human NK3 receptor = target: T1, human NK3 receptor (Homo sapiens, UniProt P29371); assay: FLIPR assay, inhibition of human NK3 receptor activation (intracellular Ca2+ increase); assay type: cell-based; conditions: CHO cells with human NK3 receptor; agonist Pro-7-NKB; pKB converted from IC50
T1 construct: expressed in transfected cells
T1 sequence (P29371 1-465): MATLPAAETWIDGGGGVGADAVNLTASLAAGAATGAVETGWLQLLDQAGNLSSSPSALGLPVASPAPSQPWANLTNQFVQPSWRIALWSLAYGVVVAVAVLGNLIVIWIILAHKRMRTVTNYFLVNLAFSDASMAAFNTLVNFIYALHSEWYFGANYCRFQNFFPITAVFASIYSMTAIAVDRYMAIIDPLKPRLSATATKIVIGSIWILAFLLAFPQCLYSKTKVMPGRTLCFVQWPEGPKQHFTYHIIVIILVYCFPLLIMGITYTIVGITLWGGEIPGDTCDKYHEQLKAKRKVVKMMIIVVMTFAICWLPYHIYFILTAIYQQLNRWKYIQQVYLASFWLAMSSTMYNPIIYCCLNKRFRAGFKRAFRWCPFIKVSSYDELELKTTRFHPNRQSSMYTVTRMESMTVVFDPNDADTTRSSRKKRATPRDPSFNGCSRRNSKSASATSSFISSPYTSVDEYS
Experimental: (§1) Chinese Hamster Ovary (CHO) K1 cells (obtained from ATCC) were stably transfected with the human NK2 receptor (hNK2R cDNA in pRc/CMV, Invitrogen) or the human NK3 receptor (hNK3R in pcDNA 3.1/Hygro (+)/IRES/CD8, Invitrogen vector modified at AstraZeneca EST-Bio UK, Alderley Park). The cells were transfected with the cationic lipid reagent LIPOFECTAMINE™ (Invitrogen) and selection was performed with Geneticin (G418, Invitrogen) at 1 mg/ml for the hNK2R transfected cells and with Hygromycin (Invitrogen) at 500 μg/ml for the hNK3R transfected cells. Single cell clones were collected by aid of Fluorescence Activated Cell Sorter (FACS), tested for functionality in a FLIPR assay (see below), expanded in culture and cryopreserved for future use. CHO cells stably transfected with human NK1 receptors originates from AstraZeneca R&D, Wilmington USA. Human NK1 receptor cDNA (obtained from RNA-PCR from lung tissue) was subcloned into pRcCMV (Invitrogen). Transfection was performed by Calcium Phosphate and selection with 1 mg/ml G418. […]
(§2) The activity of a compound of the invention to inhibit NK1/NK2/NK3 receptor activation measured as NK1/NK2/NK3 receptor mediated increase in intracellular Ca^2+ was assessed by the following procedure: […]

human NK2 receptor = target: T2, human NK2 receptor (Homo sapiens, UniProt P21452); assay: FLIPR assay, inhibition of human NK2 receptor activation (intracellular Ca2+ increase); assay type: cell-based; conditions: CHO cells with human NK2 receptor; agonist NKA; pKB converted from IC50
T2 construct: expressed in transfected cells
T2 sequence (P21452 1-398): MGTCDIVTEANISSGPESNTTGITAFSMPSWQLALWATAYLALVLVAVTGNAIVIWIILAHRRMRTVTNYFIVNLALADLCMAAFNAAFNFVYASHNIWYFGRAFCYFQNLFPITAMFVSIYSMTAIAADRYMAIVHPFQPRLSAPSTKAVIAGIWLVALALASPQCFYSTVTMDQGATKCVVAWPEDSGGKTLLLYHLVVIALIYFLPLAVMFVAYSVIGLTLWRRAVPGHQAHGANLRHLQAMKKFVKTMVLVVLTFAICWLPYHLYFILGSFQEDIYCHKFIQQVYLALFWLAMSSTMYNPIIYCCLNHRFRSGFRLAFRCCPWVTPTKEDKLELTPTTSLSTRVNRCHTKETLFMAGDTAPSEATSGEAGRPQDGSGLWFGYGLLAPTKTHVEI
Experimental: as §1, §2

[1] = target: hERG-encoded potassium channel (Homo sapiens, UniProt Q12809); assay: Activity against hERG (planar-array-based voltage clamp, Kiss et al.); assay type: cell-based
hERG-encoded potassium channel, sequence (Q12809 whole entry): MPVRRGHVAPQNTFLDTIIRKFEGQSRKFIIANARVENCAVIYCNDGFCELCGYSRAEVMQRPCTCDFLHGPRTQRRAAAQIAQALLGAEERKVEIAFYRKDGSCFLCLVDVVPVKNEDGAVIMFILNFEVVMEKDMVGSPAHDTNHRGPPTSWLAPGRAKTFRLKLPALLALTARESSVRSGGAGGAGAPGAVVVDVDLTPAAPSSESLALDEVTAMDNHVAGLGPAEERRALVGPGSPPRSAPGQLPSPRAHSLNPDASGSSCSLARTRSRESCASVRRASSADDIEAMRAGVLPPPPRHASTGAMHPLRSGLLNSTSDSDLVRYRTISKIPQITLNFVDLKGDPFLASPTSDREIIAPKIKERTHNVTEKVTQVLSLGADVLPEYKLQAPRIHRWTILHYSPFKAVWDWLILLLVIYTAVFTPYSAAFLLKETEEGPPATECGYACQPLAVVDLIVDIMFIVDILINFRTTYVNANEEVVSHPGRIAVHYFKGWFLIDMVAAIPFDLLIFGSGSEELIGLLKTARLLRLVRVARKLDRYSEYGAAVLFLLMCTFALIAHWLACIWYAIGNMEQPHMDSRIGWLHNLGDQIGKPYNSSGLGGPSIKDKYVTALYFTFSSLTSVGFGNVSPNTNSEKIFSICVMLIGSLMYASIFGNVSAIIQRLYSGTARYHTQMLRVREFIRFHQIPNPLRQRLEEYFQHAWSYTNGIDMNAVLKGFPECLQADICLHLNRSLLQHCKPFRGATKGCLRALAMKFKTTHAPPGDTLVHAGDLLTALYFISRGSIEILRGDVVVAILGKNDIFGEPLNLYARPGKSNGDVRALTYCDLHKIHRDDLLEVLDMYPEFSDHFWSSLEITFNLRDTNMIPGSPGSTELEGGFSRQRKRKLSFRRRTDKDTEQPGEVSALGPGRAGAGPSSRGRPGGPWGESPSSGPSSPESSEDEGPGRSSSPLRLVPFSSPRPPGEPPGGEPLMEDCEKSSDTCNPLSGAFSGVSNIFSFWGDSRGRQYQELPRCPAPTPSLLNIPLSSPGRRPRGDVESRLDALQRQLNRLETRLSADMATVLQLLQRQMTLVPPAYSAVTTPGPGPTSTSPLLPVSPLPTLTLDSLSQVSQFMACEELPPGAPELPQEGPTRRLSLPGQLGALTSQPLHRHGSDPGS
Excerpt: The activity of compounds according to formula I against the hERG-encoded potassium channel can be determined according to Kiss L, et al. Assay Drug Dev Technol. 1 (2003), 127-35: “High throughput ion-channel pharmacology: planar-array-based voltage clamp”.

human NK1 receptor = target: T3, human NK1 receptor (Homo sapiens, UniProt P25103); assay: FLIPR assay, inhibition of human NK1 receptor activation (intracellular Ca2+ increase); assay type: cell-based; conditions: CHO cells with human NK1 receptor; agonist Substance P; pKB converted from IC50
T3 construct: expressed in transfected cells; from AstraZeneca R&D Wilmington
T3 sequence (P25103 whole entry): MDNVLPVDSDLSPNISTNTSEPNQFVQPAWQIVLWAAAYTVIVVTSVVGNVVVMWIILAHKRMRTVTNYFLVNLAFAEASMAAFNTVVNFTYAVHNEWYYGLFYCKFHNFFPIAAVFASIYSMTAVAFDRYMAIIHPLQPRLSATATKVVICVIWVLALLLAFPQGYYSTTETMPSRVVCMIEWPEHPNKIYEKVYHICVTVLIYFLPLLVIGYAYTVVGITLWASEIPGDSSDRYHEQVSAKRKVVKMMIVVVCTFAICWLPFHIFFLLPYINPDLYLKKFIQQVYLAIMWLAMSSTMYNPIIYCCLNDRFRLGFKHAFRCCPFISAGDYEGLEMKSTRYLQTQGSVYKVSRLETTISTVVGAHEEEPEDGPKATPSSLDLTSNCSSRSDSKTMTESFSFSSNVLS
Experimental: as §1, §2

CYP3A4 = CYP3A4 (Homo sapiens, UniProt P08684); assay: CYP3A4 inhibition (according to Bapiro et al.); assay type: in vitro ADME
CYP3A4, sequence (P08684 whole entry): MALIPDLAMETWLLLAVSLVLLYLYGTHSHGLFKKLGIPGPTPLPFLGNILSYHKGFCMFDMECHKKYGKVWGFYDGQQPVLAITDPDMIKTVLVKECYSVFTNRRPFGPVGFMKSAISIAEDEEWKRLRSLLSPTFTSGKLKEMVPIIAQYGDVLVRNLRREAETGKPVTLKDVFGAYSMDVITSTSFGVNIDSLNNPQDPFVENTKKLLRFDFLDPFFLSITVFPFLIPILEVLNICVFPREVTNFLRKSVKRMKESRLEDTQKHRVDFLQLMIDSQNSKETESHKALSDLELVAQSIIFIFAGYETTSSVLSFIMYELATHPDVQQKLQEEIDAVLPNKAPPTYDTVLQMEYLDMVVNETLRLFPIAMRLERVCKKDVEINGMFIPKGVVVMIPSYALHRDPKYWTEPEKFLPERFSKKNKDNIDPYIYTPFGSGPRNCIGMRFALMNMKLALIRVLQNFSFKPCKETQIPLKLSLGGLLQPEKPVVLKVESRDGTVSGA
Experimental: The IC50 values tested according to Bapiro et al; Drug Metab. Dispos. 29, 30-35 (2001) were generally greater than 10 μM.

[2] = Metabolic stability in liver microsomes (intrinsic clearance); assay type: in vitro ADME; conditions: human, pH 7.4, 37° C., read-out: CLint (HLM)
Experimental: The rate of biotransformation can be measured as either metabolite(s) formation or the rate of disappearance of the parent compound. The experimental design involves incubation of low concentrations of substrate (usually 1.0 μM) with liver microsomes (usually 0.5 mg/ml) and taking out aliquots at varying time points (usually 0, 5, 10, 15, 20, 30, 40 min.). The test compound is usually dissolved in DMSO. The DMSO concentration in the incubation mixture is usually 0.1% or less since more solvent can drastically reduce the activities of some CYP450s. Incubations are done in 100 mM potassium phosphate buffer, pH 7.4 and at 37° C. Acetonitrile or methanol is used to stop the reaction. The parent compound is analysed by HPLC-MS. From the calculated half-life, t1/2, the intrinsic clearance, Clint, is estimated by taking microsomal protein concentration and liver weight into account.

[3] = tested on: Human Neurokinin-2 (NK2) Receptor; conditions: Bioorganic & Medicinal Chemistry Letters (2003), 13, 2211-2215; cited from earlier work

Compound `CN(C[C@@H](CCN1CC(N2CCC(C(=O)N3CCC3)CC2)C1)c1ccc(F)cc1)C(=O)c1cc(Br)cc(C(F)(F)F)c1` [Ex 1, N-[(2S)-4-{3-[4-(Azetidin-1-ylcarbonyl)piperidin-1-yl]azetidin-1-yl}-2-(4-fluorophenyl)butyl]-3-bromo-N-methyl-5-(trifluoromethyl)benzamide] has a Kb (human NK3 receptor) of 3.98 nM, a Kb (human NK2 receptor) of 2.51 nM and an IC50 [1] of 11000 nM. It also gave a Kb (human NK1 receptor) of 20 nM, an IC50 (CYP3A4) of 13500 nM and a microsomal CLint at 1 μM [2] of 23 µL/min/mg.
For `CN(CC(CCN1CC(N2CCOCC2)C1)c1ccc(Cl)c(Cl)c1)C(=O)c1ccccc1` (stereo not shown) [N-[2-(3,4-dichlorophenyl)-4-(3-morpholin-4-ylazetidin-1-yl)butyl]-N-methylbenzamide], the “functional NK2 receptor antagonistic properties” value [3] is listed as “functional NK2 receptor antagonistic properties”.
